For test [1], the target named is Ribosomal protein S6 kinase alpha-3 (Homo sapiens, UniProt P51812). Kind of test: Selectivity interaction (Millipore kinase profiler) EUB0000124b RPS6KA3. As to conditions: at 10 µM.
Test [2] deals with T1, Cyclin-dependent kinase-like 5 (Homo sapiens) (UniProt O76039).
T1 sequence (whole entry): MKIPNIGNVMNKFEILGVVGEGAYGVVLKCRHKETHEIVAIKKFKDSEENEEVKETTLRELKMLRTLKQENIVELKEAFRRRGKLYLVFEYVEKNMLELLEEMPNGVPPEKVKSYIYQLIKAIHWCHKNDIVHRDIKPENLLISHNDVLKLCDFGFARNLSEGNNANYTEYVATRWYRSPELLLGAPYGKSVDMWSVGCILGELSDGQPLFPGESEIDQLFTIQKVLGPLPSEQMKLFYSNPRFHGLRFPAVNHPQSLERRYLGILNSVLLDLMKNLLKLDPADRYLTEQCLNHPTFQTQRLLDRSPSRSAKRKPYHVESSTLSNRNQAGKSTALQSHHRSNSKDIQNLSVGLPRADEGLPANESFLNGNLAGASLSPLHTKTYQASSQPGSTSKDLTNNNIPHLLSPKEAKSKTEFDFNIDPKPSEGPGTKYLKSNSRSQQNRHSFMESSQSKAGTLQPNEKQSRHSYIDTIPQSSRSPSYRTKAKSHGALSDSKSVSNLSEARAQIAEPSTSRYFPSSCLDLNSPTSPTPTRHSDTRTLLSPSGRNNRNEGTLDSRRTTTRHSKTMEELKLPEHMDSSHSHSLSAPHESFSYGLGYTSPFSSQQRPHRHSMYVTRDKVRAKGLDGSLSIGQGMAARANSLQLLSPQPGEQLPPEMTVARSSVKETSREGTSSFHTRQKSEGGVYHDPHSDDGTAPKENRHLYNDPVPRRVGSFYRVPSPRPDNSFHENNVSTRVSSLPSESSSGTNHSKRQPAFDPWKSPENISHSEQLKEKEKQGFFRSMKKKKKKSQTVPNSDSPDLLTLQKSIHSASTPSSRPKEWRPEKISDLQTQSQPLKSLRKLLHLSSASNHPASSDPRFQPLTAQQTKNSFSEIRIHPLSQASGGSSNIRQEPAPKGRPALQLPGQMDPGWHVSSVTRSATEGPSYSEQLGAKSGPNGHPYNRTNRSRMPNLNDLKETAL
Kind of test: Selectivity interaction (KinomeScan (DiscoverX)) EUB0000092b CDKL5. Particulars: at 10 µM.

The target of test [3] is Serine/threonine-protein kinase N2 (Homo sapiens, UniProt Q16513). Kind of test: Selectivity interaction (KinomeScan (DiscoverX)) EUB0001049a PKN2. As to conditions: at 1 µM.
Test [4] concerns the target Casein kinase I isoform alpha (Homo sapiens, UniProt P48729). Briefly: Selectivity interaction (Kinase screening (Upstate/Millipore)) EUB0000604a CSNK1A1.
Test [5] deals with Activin receptor type-2B (Homo sapiens) (UniProt Q13705). Briefly: Selectivity interaction (KinomeScan (DiscoverX)) EUB0000045b ACVR2B.
The target in test [6] is T2, Inhibitor of nuclear factor kappa-B kinase subunit epsilon (Homo sapiens) (UniProt Q14164).
T2 sequence (whole entry): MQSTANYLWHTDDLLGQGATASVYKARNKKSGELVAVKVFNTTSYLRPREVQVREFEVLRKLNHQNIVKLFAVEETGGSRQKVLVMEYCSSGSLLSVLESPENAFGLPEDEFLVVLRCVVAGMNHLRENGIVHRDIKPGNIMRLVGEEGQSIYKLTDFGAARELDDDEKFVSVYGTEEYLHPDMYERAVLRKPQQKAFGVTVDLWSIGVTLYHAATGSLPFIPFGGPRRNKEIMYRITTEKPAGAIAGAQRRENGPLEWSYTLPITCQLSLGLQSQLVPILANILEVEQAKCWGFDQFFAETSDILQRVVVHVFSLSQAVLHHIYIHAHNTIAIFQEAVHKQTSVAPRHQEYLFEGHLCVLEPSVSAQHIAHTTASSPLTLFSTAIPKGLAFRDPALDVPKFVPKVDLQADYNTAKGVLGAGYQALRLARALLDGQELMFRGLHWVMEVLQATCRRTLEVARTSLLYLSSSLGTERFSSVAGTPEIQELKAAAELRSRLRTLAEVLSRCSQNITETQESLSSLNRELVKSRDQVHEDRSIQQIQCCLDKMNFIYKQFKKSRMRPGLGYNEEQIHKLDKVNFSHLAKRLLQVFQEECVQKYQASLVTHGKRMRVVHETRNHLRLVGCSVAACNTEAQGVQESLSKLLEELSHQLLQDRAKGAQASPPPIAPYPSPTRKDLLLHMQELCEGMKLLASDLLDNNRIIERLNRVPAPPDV
Briefly: Selectivity interaction (KinomeScan (DiscoverX)) EUB0000666a IKBKE. As to conditions: at 10 µM.

Test [7] deals with RAC-gamma serine/threonine-protein kinase (Homo sapiens, UniProt Q9Y243). Kind of test: Selectivity interaction (Kinase panel (Z-LYTE Assay)) EUB0001632a AKT3. As to conditions: at 10 µM.
In test [8] the target is Serine/threonine-protein kinase PRP4 homolog (Homo sapiens) (UniProt Q13523). Briefly: Selectivity interaction (KinomeScan (DiscoverX)) EUB0000595a PRPF4B. Particulars: at 10 µM.
The target in test [9] is T3, Casein kinase I isoform alpha-like (Homo sapiens) (UniProt Q8N752).
T3 sequence (whole entry): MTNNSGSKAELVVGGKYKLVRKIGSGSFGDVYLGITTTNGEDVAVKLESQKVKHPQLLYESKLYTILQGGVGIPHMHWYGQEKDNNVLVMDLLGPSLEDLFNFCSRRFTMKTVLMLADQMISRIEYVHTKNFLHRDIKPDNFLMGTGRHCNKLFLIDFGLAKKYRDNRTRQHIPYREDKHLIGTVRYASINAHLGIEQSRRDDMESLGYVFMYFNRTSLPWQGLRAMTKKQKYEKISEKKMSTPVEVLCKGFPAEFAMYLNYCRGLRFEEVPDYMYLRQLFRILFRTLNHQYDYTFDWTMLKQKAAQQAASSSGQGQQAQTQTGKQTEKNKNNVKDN
Kind of test: Selectivity interaction (KinomeScan (DiscoverX)) EUB0000618a CSNK1A1L. Particulars: at 10 µM.

Here are results for nine molecules from ChEMBL document CHEMBL5465560, “Selectivity Literature for EUbOPEN Chemogenomic Library” (2024).

Sequence of Activin receptor type-2B (Homo sapiens) (Q13705 whole entry): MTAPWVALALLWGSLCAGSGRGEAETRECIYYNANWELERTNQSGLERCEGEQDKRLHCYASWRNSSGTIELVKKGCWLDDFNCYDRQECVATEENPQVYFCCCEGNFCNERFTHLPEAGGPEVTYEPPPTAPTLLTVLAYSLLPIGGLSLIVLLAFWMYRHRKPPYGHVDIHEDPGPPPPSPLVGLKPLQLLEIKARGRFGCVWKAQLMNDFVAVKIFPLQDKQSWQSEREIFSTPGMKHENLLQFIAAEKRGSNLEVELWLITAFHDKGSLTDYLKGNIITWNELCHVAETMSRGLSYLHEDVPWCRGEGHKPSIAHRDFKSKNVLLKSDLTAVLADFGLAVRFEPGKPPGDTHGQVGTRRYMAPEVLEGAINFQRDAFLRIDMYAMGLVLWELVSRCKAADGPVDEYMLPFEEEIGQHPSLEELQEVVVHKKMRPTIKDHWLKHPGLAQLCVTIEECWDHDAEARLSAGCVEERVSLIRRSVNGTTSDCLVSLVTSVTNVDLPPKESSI
Sequence of Casein kinase I isoform alpha (P48729 2-337 limits assumed): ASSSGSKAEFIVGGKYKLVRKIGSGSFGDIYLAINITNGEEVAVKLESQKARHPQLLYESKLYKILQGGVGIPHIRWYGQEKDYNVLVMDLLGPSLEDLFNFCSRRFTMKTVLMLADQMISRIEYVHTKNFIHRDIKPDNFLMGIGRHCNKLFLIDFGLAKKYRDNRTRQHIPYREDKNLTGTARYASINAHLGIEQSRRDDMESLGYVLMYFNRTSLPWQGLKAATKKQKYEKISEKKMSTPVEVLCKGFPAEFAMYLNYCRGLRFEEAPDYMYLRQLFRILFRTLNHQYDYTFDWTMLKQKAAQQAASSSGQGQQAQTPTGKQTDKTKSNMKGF
Sequence of Ribosomal protein S6 kinase alpha-3 (P51812 whole entry): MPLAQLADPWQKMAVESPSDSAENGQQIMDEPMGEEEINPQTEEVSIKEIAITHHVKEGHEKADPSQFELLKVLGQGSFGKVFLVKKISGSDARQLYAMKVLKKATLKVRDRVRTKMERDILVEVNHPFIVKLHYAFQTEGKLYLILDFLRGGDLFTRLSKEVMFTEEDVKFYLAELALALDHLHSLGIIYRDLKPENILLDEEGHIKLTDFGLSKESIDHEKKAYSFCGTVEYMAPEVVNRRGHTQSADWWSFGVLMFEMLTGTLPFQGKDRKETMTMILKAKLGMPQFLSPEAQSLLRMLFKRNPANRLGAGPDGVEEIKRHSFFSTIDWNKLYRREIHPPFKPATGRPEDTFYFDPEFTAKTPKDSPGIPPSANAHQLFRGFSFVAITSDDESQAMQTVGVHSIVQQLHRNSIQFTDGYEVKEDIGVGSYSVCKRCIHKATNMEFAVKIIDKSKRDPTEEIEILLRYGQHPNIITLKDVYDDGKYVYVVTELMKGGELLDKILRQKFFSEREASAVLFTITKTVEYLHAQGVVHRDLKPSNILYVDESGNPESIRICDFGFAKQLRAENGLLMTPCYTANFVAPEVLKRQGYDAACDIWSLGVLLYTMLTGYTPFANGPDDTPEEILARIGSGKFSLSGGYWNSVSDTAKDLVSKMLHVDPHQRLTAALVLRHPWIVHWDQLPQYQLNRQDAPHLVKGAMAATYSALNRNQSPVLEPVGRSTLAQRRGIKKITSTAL
Sequence of Serine/threonine-protein kinase PRP4 homolog (Homo sapiens) (Q13523 whole entry, canonical isoform): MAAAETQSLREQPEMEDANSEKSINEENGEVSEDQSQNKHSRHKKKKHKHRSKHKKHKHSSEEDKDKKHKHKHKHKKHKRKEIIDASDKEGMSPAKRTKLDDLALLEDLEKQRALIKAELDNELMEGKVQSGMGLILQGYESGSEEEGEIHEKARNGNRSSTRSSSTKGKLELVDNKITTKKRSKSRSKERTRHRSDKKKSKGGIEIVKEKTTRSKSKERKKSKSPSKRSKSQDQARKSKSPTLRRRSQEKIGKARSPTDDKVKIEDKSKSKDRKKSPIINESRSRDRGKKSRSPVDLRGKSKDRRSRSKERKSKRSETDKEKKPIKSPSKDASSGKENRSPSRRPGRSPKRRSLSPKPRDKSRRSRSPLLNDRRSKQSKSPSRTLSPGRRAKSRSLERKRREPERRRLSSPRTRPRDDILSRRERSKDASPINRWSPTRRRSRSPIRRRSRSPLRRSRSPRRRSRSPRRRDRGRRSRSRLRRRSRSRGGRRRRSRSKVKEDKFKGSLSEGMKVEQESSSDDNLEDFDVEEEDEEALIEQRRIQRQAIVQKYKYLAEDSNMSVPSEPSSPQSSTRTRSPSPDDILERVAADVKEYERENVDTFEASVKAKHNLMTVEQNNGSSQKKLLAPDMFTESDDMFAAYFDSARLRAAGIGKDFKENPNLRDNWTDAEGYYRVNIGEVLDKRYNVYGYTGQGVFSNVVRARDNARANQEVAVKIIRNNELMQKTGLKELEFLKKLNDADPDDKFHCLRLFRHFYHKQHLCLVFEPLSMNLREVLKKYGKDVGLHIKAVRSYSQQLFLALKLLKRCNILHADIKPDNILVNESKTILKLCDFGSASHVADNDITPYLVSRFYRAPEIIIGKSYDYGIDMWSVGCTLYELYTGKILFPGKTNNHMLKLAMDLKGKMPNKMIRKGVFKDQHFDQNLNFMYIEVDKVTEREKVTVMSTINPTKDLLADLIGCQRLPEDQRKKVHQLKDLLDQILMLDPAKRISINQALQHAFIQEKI
Sequence of Serine/threonine-protein kinase N2 (Q16513 whole entry, looked up, canonical isoform): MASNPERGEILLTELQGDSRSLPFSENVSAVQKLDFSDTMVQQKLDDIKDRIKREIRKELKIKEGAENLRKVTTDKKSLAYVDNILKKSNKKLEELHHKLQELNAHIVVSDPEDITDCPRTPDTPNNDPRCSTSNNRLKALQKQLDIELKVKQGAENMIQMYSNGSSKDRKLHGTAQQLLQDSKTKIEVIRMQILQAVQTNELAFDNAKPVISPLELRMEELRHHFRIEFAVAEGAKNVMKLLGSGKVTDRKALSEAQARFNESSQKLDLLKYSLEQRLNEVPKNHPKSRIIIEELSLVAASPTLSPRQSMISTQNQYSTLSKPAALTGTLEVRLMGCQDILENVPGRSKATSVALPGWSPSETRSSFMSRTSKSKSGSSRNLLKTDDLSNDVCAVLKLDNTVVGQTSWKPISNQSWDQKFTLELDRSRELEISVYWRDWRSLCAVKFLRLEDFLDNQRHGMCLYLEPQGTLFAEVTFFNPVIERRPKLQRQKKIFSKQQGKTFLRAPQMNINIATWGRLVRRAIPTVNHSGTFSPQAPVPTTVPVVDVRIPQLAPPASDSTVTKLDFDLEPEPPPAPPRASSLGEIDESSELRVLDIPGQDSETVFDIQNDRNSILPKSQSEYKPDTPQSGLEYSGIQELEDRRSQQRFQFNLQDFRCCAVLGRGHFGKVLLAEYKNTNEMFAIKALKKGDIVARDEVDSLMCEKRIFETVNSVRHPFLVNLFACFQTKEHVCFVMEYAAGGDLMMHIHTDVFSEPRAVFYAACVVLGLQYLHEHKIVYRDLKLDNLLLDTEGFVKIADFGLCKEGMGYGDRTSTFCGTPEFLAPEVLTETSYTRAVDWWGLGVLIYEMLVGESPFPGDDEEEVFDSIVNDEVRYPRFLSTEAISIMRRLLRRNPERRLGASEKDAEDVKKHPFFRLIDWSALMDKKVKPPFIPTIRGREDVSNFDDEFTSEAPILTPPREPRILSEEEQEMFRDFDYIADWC
Sequence of RAC-gamma serine/threonine-protein kinase (Q9Y243 whole entry): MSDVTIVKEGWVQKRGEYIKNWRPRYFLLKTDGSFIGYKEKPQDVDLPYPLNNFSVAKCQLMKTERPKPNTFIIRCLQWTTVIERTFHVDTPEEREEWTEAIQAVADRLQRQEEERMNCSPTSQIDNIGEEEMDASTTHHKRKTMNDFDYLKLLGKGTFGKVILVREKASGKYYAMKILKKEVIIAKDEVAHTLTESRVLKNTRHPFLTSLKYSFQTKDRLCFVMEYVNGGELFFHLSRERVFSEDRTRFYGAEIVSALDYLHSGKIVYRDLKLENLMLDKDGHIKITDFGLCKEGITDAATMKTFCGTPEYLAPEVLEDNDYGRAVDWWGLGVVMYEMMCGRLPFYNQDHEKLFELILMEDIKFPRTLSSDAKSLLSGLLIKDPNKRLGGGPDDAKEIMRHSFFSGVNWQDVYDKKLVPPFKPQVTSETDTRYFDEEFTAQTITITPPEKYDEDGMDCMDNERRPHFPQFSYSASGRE

As for `CC(=O)Nc1cccc(-n2c(=O)n(C3CC3)c(=O)c3c(Nc4ccc(I)cc4F)n(C)c(=O)c(C)c32)c1`, the % of control in [1] is 94%.

On to `CCC(=O)N1CCN(c2ccc(-n3c(=O)ccc4cnc5ccc(-c6cnc7ccccc7c6)cc5c43)cc2C(F)(F)F)CC1`, for which the % of control in test [2] was determined as 100%.

Take `COc1cc(Nc2nc(C)cc(-c3cnn4nc(OC)ccc34)n2)cc(C(F)(F)F)c1`: in test [3], the % of control was 90%.

`Cc1cnc(Nc2ccc(F)cc2Cl)nc1-c1c[nH]c(C(=O)N[C@H](CO)c2cccc(Cl)c2)c1` gave a % of inhibition in test [4] of 25%.

For the molecule `C=CC(=O)Nc1cc(-n2c(=O)ccc3cnc4ccc(-c5ccc(NS(C)(=O)=O)cc5)cc4c32)ccc1C`, the % of control was 100% in test [5] (at 1 µM) and 84% in [5] (at 10 µM).

Molecule `O=C(NOC[C@H](O)CO)c1ccc(F)c(F)c1Nc1ccc(I)cc1F` had a % of control in test [6] of 100%.

Consider `Cn1cc(-n2cnc3c(NCc4nc5cc(Cl)c(Cl)cc5[nH]4)nc(N4CCOCC4)nc32)cn1`, for which the % of control in test [7] turned out to be 2.65%.

On to `COCC(=O)NC/C=C/c1ccc2ncnc(Nc3ccc(Oc4ccc(C)nc4)c(C)c3)c2c1` [CP-724714], for which the % of control in [8] is 93%.

Turning to `O[C@H]1CC[C@H](Nc2ncc3nc(Nc4c(F)cc(F)cc4F)n([C@H]4CCOC4)c3n2)CC1`, in [9], the % of control amounted to 55%.
